Source: the METLIN SMRT retention time set (Domingo-Almenara et al. 2019)

Experiment: gradient 5% acetonitrile 3 min, to 50% in 2 min, to 85% in 15 min, held 3 min, 100 µL/min
Conditions: column: Zorbax Extend-C18 2.1 x 50 mm; eluents: water / acetonitrile, 0.1% formic acid
Procedure, shortened: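 The system's dead and dwell volumes were 40 μL and 900 μL, with a Zorbax Extend-C18 column (2.1 × 50 mm, 1.8 μm) run at 100 μL/min in water and acetonitrile containing 0.1% formic acid each. Pure standards were analyzed in mixtures of ~100 molecules by HPLC–quadrupole time-of-flight mass spectrometry in positive and negative ionization mode. Retention time was assigned from computationally picked, manually inspected adduct peaks.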

Row | Structure (SMILES) | RP-LC retention time
1 | CCOC(=O)C1CCN(C(=O)CCn2c(=O)oc3ccccc32)CC1 | 708 s
2 | CN(C)CCNC(=O)C1CCN(c2nc3ccc(-c4ccsc4)nc3s2)CC1 | 645 s
3 | COc1ccc(C2Cn3nnc(-c4nc(-c5cccc(Cl)c5)no4)c3CO2)cc1 (configuration not stated) | 1250 s
4 | Cc1noc(C)c1S(=O)(=O)N1CCCn2nc(-c3cccs3)cc2C1 | 880 s
5 | CCSc1nnc(-c2nn(C)c3c2CN(S(=O)(=O)c2cc(F)ccc2C)CC3)n1CC | 988 s
6 | COc1ccc(NC(=O)c2cnc3c(c2)c(=O)n(C)c(=O)n3C)cc1 | 732 s
7 | Cc1c(Cl)cccc1NC1=NS(=O)(=O)c2ccccc21 | 813 s
8 | CCc1csc(-c2ccc(N3CCN(C(=O)c4ccc(OC)c(F)c4)CC3)nc2)n1 | 936 s
9 | CN(C)C(=O)c1ccc2c(c1)nc(CN1CCN(C(=O)COc3ccc(Cl)cc3)CC1)n2C | 640 s
10 | Cc1cc(C(=O)NCC(C)C)n[nH]1 | 629 s
11 | O=C(NCCC1=CCCCC1)C(=O)NCC1CCN(Cc2ccco2)CC1 | 581 s
12 | Cc1nc(-c2ccc3c(c2)CCN3C(=O)c2ccc3c(c2)OCO3)cs1 | 951 s
13 | CC(C)(C)NC(=O)Nc1nnc(SCc2c(F)cccc2Cl)s1 | 946 s
14 | CCOc1ccc(-c2noc(Cn3ncn4nc(-c5ccc(F)cc5)cc4c3=O)n2)cc1OC | 1070 s
15 | O=S(=O)(CCOc1ccc(F)cc1)Nc1cccnc1 | 627 s
16 | O=C(CSc1ncnc2c1nnn2-c1cccc(Cl)c1)NCC1CCCO1 (configuration not stated) | 820 s
17 | CCCCOc1ccc(-c2csc(Nc3ccccc3)n2)cc1 | 1400 s
18 | CCC(=O)N(C1CCOCC1)C1CCN(Cc2ccc(C)cc2C)CC1 | 636 s
19 | CN(C)[C@@H]1CN(C(=O)Cc2cccc3ccccc23)C[C@H]1CO | 546 s
20 | O=C(CSc1ccc(F)cc1)OCc1cc(-c2ccc3c(c2)OCO3)on1 | 1020 s
21 | CCCn1nc(CNC(=O)c2sc(C)nc2C)c2ccccc21 | 776 s

Row | Structure (SMILES) | RP-LC retention time
22 | CN1CCN(C(CNC(=O)c2ccc(Br)o2)c2ccc(N(C)C)cc2)CC1 (configuration not stated) | 566 s
23 | COc1ccc(-c2cn3c(CC(=O)Nc4ccc(Cl)cc4)csc3n2)cc1OC | 799 s
24 | CC(C)CCN1CCC(N(C(=O)NCCc2ccccc2)C2CCOCC2)CC1 | 700 s
25 | Cc1cc2c(=O)n(CC(=O)Nc3cccc(Cl)c3)ccc2s1 | 832 s
26 | COc1cc(CNC(=O)CN2C(=O)C(C)(C)c3cc(C)ccc32)cc(OC)c1OC | 794 s
27 | CCN1C(=O)c2cc(S(=O)(=O)Nc3cc(C)ccc3F)ccc2Oc2cccnc21 | 1030 s
28 | CC(=O)N1C[C@@H](C(=O)NCCc2cccs2)[C@H](c2nc(C)no2)C1 | 652 s
29 | CSc1ccc(N2C=NS(=O)(=O)c3cccnc32)cc1 | 810 s
30 | Cc1nc(-c2ccc(C(=O)NC3CC3)cc2)cs1 | 706 s
31 | Cc1cccc(S(=O)(=O)N2CCC(c3nc(C(=O)N(C)C)c(C)o3)CC2)c1 | 826 s
32 | COC(=O)c1c(NCCc2c[nH]c3ccccc23)c2cc(Cl)ccc2[nH]c1=O | 809 s
33 | COc1cc([C@@H]2c3cc4c(cc3[C@H](O)[C@@H](CO)[C@@H]2C(=O)NC2CCCC2)OCO4)cc(OC)c1OC | 689 s
34 | CCN1C(=O)COc2ccc(-c3noc(COc4ccc(F)cc4)n3)cc21 | 1030 s
35 | O=C(Nc1nnc(SCc2nnc(-c3ccccc3)o2)s1)c1ccc(Br)o1 | 870 s
36 | CCCCN1C(=O)C(C)(C(=O)Nc2cc(C)ccc2C)Oc2cccnc21 (configuration not stated) | 1110 s
37 | Cc1nn(-c2ccccc2)c(C)c1S(=O)(=O)N1CCC(C(=O)NC2CCCCCCC2)CC1 | 1050 s
38 | COc1ccc(Cn2c(=O)c3sccc3n(Cc3nc(-c4ccccc4C)no3)c2=O)cc1 | 1150 s
39 | COc1ccc2[nH]cc(CCN3CC(C(=O)Nc4ccc5c(c4)CCC5)CC3=O)c2c1 (configuration not stated) | 841 s
40 | Fc1ccc(-c2noc(-c3ccc(N4CCCCC4)nc3)n2)cc1 | 1360 s
41 | COc1ccc(C2CC(=O)c3cnc4c(c3C2)c(=O)n(C)c(=O)n4C)cc1 (configuration not stated) | 913 s
42 | COC(=O)c1ccsc1NC(=O)c1ccc2c(c1)OCCO2 | 979 s

Next, values leading:

Row | RP-LC retention time | Structure (SMILES)
43 | 809 s | CC(NC(=O)C1CCN(C(=O)c2ncn3c2COC(c2ccc(F)cc2)C3)CC1)c1ccccc1 (configuration not stated)
44 | 934 s | COc1cccc(-c2cc(CNC(=O)c3sc(-n4cccc4)nc3C)no2)c1
45 | 1090 s | COC(=O)c1cn(C(=O)c2ccccc2)c2ccccc12
46 | 630 s | CSc1cccc(NC(=O)c2cn3c(n2)CCCC3)c1
47 | 640 s | CC(NC(=O)Cc1cccc(F)c1)C(=O)Nc1nc2ccccc2[nH]1 (configuration not stated)
48 | 850 s | CNC(=O)N1CCCC(c2cccc(C(=O)NCc3cccc(C(F)(F)F)c3)c2)C1 (configuration not stated)
49 | 862 s | O=C(NC1CCN(c2cc(-c3ccc(Cl)cc3)[nH]n2)C1)c1cccc(OC(F)(F)F)c1 (configuration not stated)
50 | 689 s | CCCNC(=O)C1CCN(c2ccc(SCC(=O)Nc3ccc(Br)cc3)nn2)CC1
51 | 824 s | O=C(NCC1CCCCC1)c1ccc(CN2C(=O)C3CCCN3C(=O)c3ccccc32)cc1 (configuration not stated)
52 | 825 s | CCC(=O)Nc1ccc(C2(C(=O)NCC3CC3)CCCCC2)cc1
53 | 689 s | Cc1cccc(-c2nc(Nc3ccc(C(=O)O)cc3)c3ccccc3n2)c1
54 | 630 s | OC(c1ccc(C(F)(F)F)cc1)c1cccnc1 (configuration not stated)
55 | 831 s | O=C(CN1C(=O)CC(c2ccccc2)S(=O)(=O)c2ccccc21)NC1CCCC1 (configuration not stated)
56 | 745 s | O=C(NCc1ccco1)C(=O)NCC1OCCN1S(=O)(=O)c1ccc([N+](=O)[O-])cc1 (configuration not stated)
57 | 1220 s | CCCCCNC(=O)c1ccc(Oc2nccnc2N2CCC(C)CC2)cc1
58 | 777 s | CCOc1cccc(CNC(=O)C2CCc3nc(N4CCCCC4)ncc3C2)c1 (configuration not stated)
59 | 805 s | CCOC(=O)c1c(C)[nH]c(C(=O)N2CCC(C(C)C(=O)NCc3ccc(F)cc3)CC2)c1C (configuration not stated)
60 | 693 s | Cn1c(C2CCN(C(=O)Nc3cccc(Cl)c3)CC2)cc(=O)n2nccc12
61 | 939 s | O=C(c1ccc2c(c1)CCCN2S(=O)(=O)c1ccccc1)N1CCCCC1
62 | 602 s | CCCC(NC(=O)c1ccncc1)C(=O)Nc1nc2ccccc2[nH]1 (configuration not stated)
63 | 572 s | CC(C)NC(=O)N1CCC(c2nc3cccnc3n2C)C1 (configuration not stated)
64 | 938 s | COC(=O)c1cc(S(=O)(=O)N2CCCC2C(=O)Nc2ccc(F)cc2Cl)cn1C (configuration not stated)
65 | 712 s | O=C(NCc1ccc(C(F)(F)F)cc1)C1CCCN(c2cn[nH]c(=O)c2)C1 (configuration not stated)
66 | 1040 s | CCc1cccc(NC(=O)c2sc(-c3cn(C)c4ncccc34)nc2C)c1
67 | 717 s | CC(C)NC(=O)c1ccc2c(c1)CCCN2S(C)(=O)=O
